# Target: T1, WT BTK protein (Homo sapiens, UniProt Q06187)
# T1 construct: measured for intracellular BTK protein levels by Western blotting; endogenous in cells; host or cells: TMD-8 or RAMOS cells
# Assay: BTK protein degradation assay (Western blotting), WT BTK
# Assay type: cell-based
# Conditions: concentration range accounting for 50% degradation of WT BTK protein, TMD-8 or RAMOS cells, 24 hours
# Outline: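 BTK levels were read by Western blotting (GAPDH and β-actin normalisers) in RIPA lysates of TMD-8 cells exposed to compounds for 24 h at 1×10^6 cells/mL. Results scored in ranges of the concentration producing 50% loss of WT BTK.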
# T1 sequence (Q06187 whole entry): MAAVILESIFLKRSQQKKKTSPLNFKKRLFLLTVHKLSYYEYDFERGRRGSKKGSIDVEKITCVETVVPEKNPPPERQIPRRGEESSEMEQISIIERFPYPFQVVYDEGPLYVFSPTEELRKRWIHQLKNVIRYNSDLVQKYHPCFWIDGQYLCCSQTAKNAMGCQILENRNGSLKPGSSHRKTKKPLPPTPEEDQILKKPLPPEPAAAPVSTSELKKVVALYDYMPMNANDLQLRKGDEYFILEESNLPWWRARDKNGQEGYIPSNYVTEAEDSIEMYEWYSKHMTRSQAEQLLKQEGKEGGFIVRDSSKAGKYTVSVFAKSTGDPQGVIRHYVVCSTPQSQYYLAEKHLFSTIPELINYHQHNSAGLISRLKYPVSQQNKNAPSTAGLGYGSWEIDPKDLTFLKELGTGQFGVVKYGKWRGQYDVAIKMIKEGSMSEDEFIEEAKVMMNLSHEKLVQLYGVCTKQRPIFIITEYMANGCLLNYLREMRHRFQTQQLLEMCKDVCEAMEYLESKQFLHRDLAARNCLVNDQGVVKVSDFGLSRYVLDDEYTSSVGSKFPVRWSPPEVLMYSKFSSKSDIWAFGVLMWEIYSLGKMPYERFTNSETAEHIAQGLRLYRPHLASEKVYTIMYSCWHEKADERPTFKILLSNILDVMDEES
row,DC50 [nM],Structure (SMILES)
1,10 to 1000,"Cc1cccc(C)c1Nc1nn(C)c2nc(Nc3ccc4c(c3)CN(C(=O)Cc3cccc(NC5=CC(=O)N(C6CCC(=O)NC6=O)C5=O)c3)CC4)ncc12 (stereo not shown) [Compound 192, 3-(3-((3-(2-(7-((3-((2,6-Dimethylphenyl)amino)-1-methyl-1H-pyrazolo[3,4-d]pyrimidin-6-yl)amino)-3,4-dihydroisoquinolin-2 (1H)-yl)-2-oxoethyl)phenyl)amino)-2,5-dioxo-2,5-dihydro-1H-pyrrol-1-yl)piperidin-2,6-one]"
2,0.1 to 10,"Cc1cccc(C)c1Nc1nn(C)c2nc(Nc3ccc4c(c3)CN(CC3CCN(C(=O)Cc5cccc(NC6=CC(=O)N(C7CCC(=O)NC7=O)C6=O)c5)CC3)CC4)ncc12 (stereo not shown) [Compound 193, 3-(3-((3-(2-(4-((7-((3-((2,6-Dimethylphenyl)amino)-1-methyl-1H-pyrazolo[3,4-d]pyrimidin-6-yl)amino)-3,4-dihydroisoquinolin-2 (1H)-yl)methyl)piperidin-1-yl)-2-oxoethyl)phenyl)amino)-2,5-dioxo-2,5-dihydro-1H-pyrrol-1-yl)piperidin-2,6-one]"
3,10 to 1000,"Cc1cccc(C)c1Nc1nn(C)c2nc(Nc3ccc4c(c3)CN(C(=O)COc3ccc5c(c3)C(=O)N(C3CCC(=O)NC3=O)C5=O)CC4)ncc12 (stereo not shown) [Compound 194, 5-(2-(7-((3-((2,6-Dimethylphenyl)amino)-1-methyl-1H-pyrazolo[3,4-d]pyrimidin-6-yl)amino)-3,4-dihydroisoquinolin-2 (1H)-yl)-2-oxoethoxy)-2-(2,6-dioxopiperidin-3-yl)isoindoline-1,3-dione]"
4,0.1 to 10,"Cc1cccc(Br)c1Nc1nn(C)c2nc(Nc3ccc4c(c3)CN(CC3CCN(c5ccc6c(c5)C(=O)N(C5CCC(=O)NC5=O)C6=O)CC3)CC4)ncc12 (stereo not shown) [Compound 195, 5-(4-((7-((3-((2-Bromo-6-methylphenyl)amino)-1-methyl-1H-pyrazolo[3,4-d]pyrimidin-6-yl)amino)-3,4-dihydroisoquinolin-2 (1H)-yl)methyl)piperidin-1-yl)-2-(2,6-dioxopiperidin-3-yl)isoindoline-1,3-dione]"
5,10 to 1000,"Cc1cccc(C)c1Nc1nn(C)c2nc(Nc3ccc4c(c3)CN(C(=O)C3(NCC5CCN(c6ccc7c(c6)C(=O)N(C6CCC(=O)NC6=O)C7=O)CC5)CC3)CC4)ncc12 (stereo not shown) [Compound 199, 5-(4-(((1-(7-((3-((2,6-Dimethylphenyl)amino)-1-methyl-1H-pyrazolo[3,4-d]pyrimidin-6-yl)amino)-1,2,3,4-tetrahydroisoquinoline-2-carbonyl)cyclopropyl)amino)methyl)piperidin-1-yl)-2-(2,6-dioxopiperidin-3-yl)isoindoline-1,3-dione]"
6,0.1 to 10,"Cc1cccc(C)c1Nc1nn(C)c2nc(Nc3ccc4c(c3)CN(CC3CCN(C5=CC(=O)N(C6CCC(=O)NC6=O)C5=O)CC3)CC4)ncc12 (stereo not shown) [Compound 201, 3-(3-(4-((7-((3-((2,6-dimethylphenyl)amino)-1-methyl-1H-pyrazolo[3,4-d]pyrimidin-6-yl)amino)-3,4-dihydroisoquinolin-2 (1H)-yl)methyl)piperidin-1-yl)-2,5-dioxo-2,5-dihydro-1H-pyrrol-1-yl)piperidin-2,6-one]"
7,0.1 to 10,"Cc1cccc(C)c1Nc1nn(C)c2nc(Nc3ccc4c(c3)CN(CC3(NC(=O)C5CCN(c6ccc7c(c6)C(=O)N(C6CCC(=O)NC6=O)C7=O)CC5)CC3)CC4)ncc12 (stereo not shown) [Compound 204, N-(1-((7-((3-((2,6-dimethylphenyl)amino)-1-methyl-1H-pyrazolo[3,4-d]pyrimidin-6-yl)amino)-3,4-dihydroisoquinolin-2 (1H)-yl)methyl)cyclopropyl)-1-(2-(2,6-dioxopiperidin-3-yl)-1,3-dioxoisoindolin-5-yl)piperidine-4-carboxamide]"
8,10 to 1000,"Cc1cccc(C)c1Nc1nn(C)c2nc(Nc3ccc4c(c3)CN(CC3(NC(=O)COc5ccc6c(c5)C(=O)N(C5CCC(=O)NC5=O)C6=O)CC3)CC4)ncc12 (stereo not shown) [Compound 205, N-(1-((7-((3-((2,6-dimethylphenyl)amino)-1-methyl-1H-pyrazolo[3,4-d]pyrimidin-6-yl)amino)-3,4-dihydroisoquinolin-2 (1H)-yl)methyl)cyclopropyl)-2-((2-(2,6-dioxopiperidin-3-yl)-1,3-dioxoisoindolin-5-yl)oxy)acetamide]"
9,0.1 to 10,"Cc1cccc(C)c1Nc1nn(C)c2nc(Nc3ccc4c(c3)CN(CC3CCN(c5cc6c(cc5F)C(=O)N(C5CCC(=O)NC5=O)C6=O)CC3)CC4)ncc12 (stereo not shown) [Compound 208, 5-(4-((7-((3-((2,6-Dimethylphenyl)amino)-1-methyl-1H-pyrazolo[3,4-d]pyrimidin-6-yl)amino)-3,4-dihydroisoquinolin-2 (1H)-yl)methyl)piperidin-1-yl)-2-(2,6-dioxopiperidin-3-yl)-6-fluoroisoindoline-1,3-dione]"
10,0.1 to 10,"Cc1cccc(C)c1Nc1nn(C)c2nc(Nc3ccc4c(c3)CN(CC3CCN(C(=O)C5CCN(c6cc7c(cc6F)C(=O)N(C6CCC(=O)NC6=O)C7=O)CC5)CC3)CC4)ncc12 (stereo not shown) [Compound 210, 5-(4-(4-((7-((3-((2,6-Dimethylphenyl)amino)-1-methyl-1H-pyrazolo[3,4-d]pyrimidin-6-yl)amino)-3,4-dihydroisoquinolin-2 (1H)-yl)methyl)piperidine-1-carbonyl)piperidin-1-yl)-2-(2,6-dioxopiperidin-3-yl)-6-fluoroisoindoline-1,3-dione]"
11,0.1 to 10,"Cc1cccc(C)c1Nc1nn(C)c2nc(Nc3ccc4c(c3)CN(CC3CCN(C(=O)CNc5cc6c(cc5F)C(=O)N(C5CCC(=O)NC5=O)C6=O)CC3)CC4)ncc12 (stereo not shown) [Compound 211, 5-((2-(4-((7-((3-((2,6-Dimethylphenyl)amino)-1-methyl-1H-pyrazolo[3,4-d]pyrimidin-6-yl)amino)-3,4-dihydroisoquinolin-2 (1H)-yl)methyl)piperidin-1-yl)-2-oxoethyl)amino)-2-(2,6-dioxopiperidin-3-yl)-6-fluoroisoindoline-1,3-dione]"
12,0.1 to 10,"Cn1nc(Nc2c(Br)cccc2Br)c2cnc(Nc3ccc4c(c3)CN(CC3CCN(c5ccc6c(c5)C(=O)N(C5CCC(=O)NC5=O)C6=O)CC3)CC4)nc21 (stereo not shown) [Compound 217, 5-(4-((7-((3-((2,6-Dibromophenyl)amino)-1-methyl-1H-pyrazolo[3,4-d]pyrimidin-6-yl)amino)-3,4-dihydroisoquinolin-2 (1H)-yl)methyl)piperidin-1-yl)-2-(2,6-dioxopiperidin-3-yl)isoindoline-1,3-dione]"
13,0.1 to 10,"Cn1nc(Nc2c(Cl)cccc2Br)c2cnc(Nc3ccc4c(c3)CN(CC3CCN(c5ccc6c(c5)C(=O)N(C5CCC(=O)NC5=O)C6=O)CC3)CC4)nc21 (stereo not shown) [Compound 218, 5-(4-((7-((3-((2-Bromo-6-chlorophenyl)amino)-1-methyl-1H-pyrazolo[3,4-d]pyrimidin-6-yl)amino)-3,4-dihydroisoquinolin-2 (1H)-yl)methyl)piperidin-1-yl)-2-(2,6-dioxopiperidin-3-yl)isoindoline-1,3-dione]"
14,0.1 to 10,"Cn1nc(Nc2c(Cl)cccc2I)c2cnc(Nc3ccc4c(c3)CN(CC3CCN(c5ccc6c(c5)C(=O)N(C5CCC(=O)NC5=O)C6=O)CC3)CC4)nc21 (stereo not shown) [Compound 219, 5-(4-((7-((3-((2-chloro-6-iodophenyl)amino)-1-methyl-1H-pyrazolo[3,4-d]pyrimidin-6-yl)amino)-3,4-dihydroisoquinolin-2 (1H)-yl)methyl)piperidin-1-yl)-2-(2,6-dioxopiperidin-3-yl)isoindoline-1,3-dione]"
15,0.1 to 10,"Cc1cccc(C)c1Nc1nn(C)c2nc(Nc3ccc4c(c3)CN(CC3CCN(c5cc6c(cc5F)C(=O)N(C5CCC(=O)NC5=O)C6)CC3)CC4)ncc12 (stereo not shown) [Compound 220, 3-(5-(4-((7-((3-((2,6-Dimethylphenyl)amino)-1-methyl-1H-pyrazolo[3,4-d]pyrimidin-6-yl)amino)-3,4-dihydroisoquinolin-2 (1H)-yl)methyl)piperidin-1-yl)-6-fluoro-1-oxoisoindolin-2-yl)piperidin-2,6-one]"
16,0.1 to 10,"Cc1cc(F)cc(C)c1Nc1nn(C)c2nc(Nc3ccc4c(c3)CN(CC3CCN(c5ccc6c(c5)C(=O)N(C5CCC(=O)NC5=O)C6=O)CC3)CC4)ncc12 (stereo not shown) [Compound 221, 2-(2,6-dioxopiperidin-3-yl)-5-(4-((7-((3-((4-fluoro-2,6-dimethylphenyl)amino)-1-methyl-1H-pyrazolo[3,4-d]pyrimidin-6-yl)amino)-3,4-dihydroisoquinolin-2 (1H)-yl)methyl)piperidin-1-yl)isoindoline-1,3-dione]"
17,0.1 to 10,"Cc1cccc(C)c1Nc1nn(C)c2nc(Nc3ccc(C4CCN(C(=O)CC5CCN(c6ccc7c(c6)C(=O)N(C6CCC(=O)NC6=O)C7=O)CC5)CC4)cc3)ncc12 (stereo not shown) [Compound 222, 5-(4-(2-(4-(4-((3-((2,6-Dimethylphenyl)amino)-1-methyl-1H-pyrazolo[3,4-d]pyrimidin-6-yl)amino)phenyl)piperidin-1-yl)-2-oxoethyl)piperidin-1-yl)-2-(2,6-dioxopiperidin-3-yl)isoindoline-1,3-dione]"
18,0.1 to 10,"Cc1cccc(C)c1Nc1nn(C)c2nc(Nc3ccc(C4CCN(C(=O)CN5CCN(c6ccc7c(c6)C(=O)N(C6CCC(=O)NC6=O)C7=O)CC5)CC4)cc3)ncc12 (stereo not shown) [Compound 225, 5-(4-(2-(4-(4-((3-((2,6-dimethylphenyl)amino)-1-methyl-1H-pyrazolo[3,4-d]pyrimidin-6-yl)amino)phenyl)piperidin-1-yl)-2-oxoethyl)piperazin-1-yl)-2-(2,6-dioxopiperidin-3-yl)isoindoline-1,3-dione]"
19,0.1 to 10,"Cc1cccc(C)c1Nc1nn(C)c2nc(Nc3ccc(C4CCN(C(=O)CN5CCN(c6ccc7c(c6)C(=O)N(C6CCC(=O)NC6=O)C7=O)CC5)CC4)c(F)c3)ncc12 (stereo not shown) [Compound 226, 5-(4-(2-(4-(4-((3-((2,6-Dimethylphenyl)amino)-1-methyl-1H-pyrazolo[3,4-d]pyrimidin-6-yl)amino)-2-fluorophenyl)piperidin-1-yl)-2-oxoethyl)piperazin-1-yl)-2-(2,6-dioxopiperidin-3-yl)isoindoline-1,3-dione]"

# Reference: US12161722B2, “Bifunctional heterocyclic compound having BTK degradation function via ubiquitin proteasome pathway, and use thereof” (KOREA RESEARCH INSTITUTE OF CHEMICAL TECHNOLOGY, priority 2021, dated 2024)
